From patent US5658944A, “Anti-atherosclerotic aryl compounds” (The University of South Carolina, priority 1990, dated 1997)

How the values were obtained:
[1] = test system: ACAT; experiment: In vitro assay for the inhibition of ACAT activity; format: biochemical, rat; details: hepatic microsomes of cholesterol/cholic acid fed male CD rats, [14C]oleoyl-CoA incorporation
Procedure: (i) In vitro assay for the inhibition of ACAT activity
ACAT activity was determined as described By Ross et al by the incorporation of [^14 C]oleoyl-CoA into cholesterol [^14 C]oleate using hepatic microsomes as the source of both ACAT and cholesterol. Microsomes were prepared from the livers of male CD rats fed a 0.4% cholesterol/0.2% cholic acid diet 3.5 days before sacrifice. Various concentrations of a test compound were preincubated with a 0.5 mg/ml microsomal suspension and after 15 minutes a 50 μg aliquot was removed and incubated with 25 μM of [^14 C]-enriched oleoyl-CoA for 4 minutes. The reaction was terminated by the addition of 1 ml of ethanol and 4 ml of hexane. After shaking, the hexane layer was removed and evaporated to dryness. The hexane extract was then reconstituted in 150 μl of HPLC solvent and injected on to a B&J OD5 Reverse Phase C18 column using an isocratic mobile phase of acetonitrile: isopropanol:heptane (50:40:10) in 0.5% acetic acid at a flow rate of 1.0 ml/min. The product of the reaction, [^14 C]oleoyl cholesterol, was measured using a Flow One radiometric detector. The ACAT IC50 value for each compound was determined from a plot of % inhibition from control vs inhibitor concentration.

[2] = test system: cholesterol-cholic acid fed rats; experiment: Determination of hypolipdemic activity in cholesterol-cholic acid fed rats; format: in vivo, rat; details: serum on fourth day
Text: (ii) Determination of hypolipdemic activity in cholesterol-cholic acid fed rats
Male Sprague-Dawley rats (CD, Charles River) each weighing 200-300 g were used. Hypercholesterolemia was induced in the rats by administration of a diet enriched to 0.4% cholesterol, 0.2% cholic acid. Prior to the adminstration of the diet, blood samples were collected under halothane anesthesia by cardiac puncture to determine baseline lipid levels. The blood was allowed to clot and serum was obtained for the analysis of total cholesterol, dextran-precipitable lipoproteins cholesterol (VLDL+LDL) and total triglycerides. The rats were divided into groups so that each group had similar average baseline serum lipid levels. Five days after the initial blood sampling, administration of each test compound and the cholesterol-cholic acid-enriched diet was begun. Compounds to be tested by gavage were administered b.i.d. in either 0.5% methyl cellulose or 5% sodium bicarbonate a 9:00 a.m. and 3:00 p.m. for three days and at 9:00 a.m. on the fourth day. Compounds administered as part of the diet were dissolved in ethanol and sprayed on to the diet. The ethonol was allowed to evaporate and the diet given to the rats for three days. On the fourth day, blood samples were collected and the final serum lipid levels determined. All blood samplings were taken after a four-hour fast.

Structure (SMILES) | IC50 [1] | reduced LDL-cholestrol by ([2]; dose of 5 mg/kg) | reduced LDL-cholestrol by ([2]; dose of 25 mg/kg) | reduced LDL-cholestrol by ([2]; dose of 0.5 mg/kg) | reduced LDL-cholestrol by ([2]; dose of 2 mg/kg) | reduced LDL-cholestrol by ([2]; dose of 50 mg/kg)
CCCCCCCN(CCc1ccc(OC(C)(C)C(=O)O)cc1)C(=O)Nc1ccc(OC)cc1OC [Synthetic Example 2, 2-(4-{2-[3-(2,4-dimethoxyphenyl)-1-heptylureido]ethyl}phenoxy)-2-methylpropionic acid] | 3.4 µM | 41-71% | 61% | – | – | –
CCCCCCCN(CCc1ccc(OC(C)(C)C(=O)O)cc1)C(=O)Nc1ccc(F)cc1F [Synthetic Example 3, 2-(4-{2-[3-(2,4-difluorophenyl)-1-heptylureido]ethyl}phenoxy)-2-methypropionic acid] | 7.6 µM | – | – | 90% | 74% | –
CCCCCCCN(Cc1ccc(OC(C)(C)C(=O)O)cc1)C(=O)Nc1ccc(OC)cc1OC [Synthetic Example 1, 2-(4-{[3-(2,4-dimethoxyphenyl)-1-heptylureido]methyl}phenoxy)-2-methylpropionic acid] | 4.5 µM | – | 55% | – | – | 67%
